In patent publication US8563067B2, “Extended shelf life and bulk transport of perishable organic liquids with low pressure carbon dioxide” (Cornell Research Foundation, Inc., priority 2004, dated 2013):
Like-named read-outs stand apart in the source and are kept apart here.

Assays:
Lactobacillus spp. = settings: 30 and 45 ppm CO2 (Espie and Madden, 1997); cited from earlier work
[1] = tested on: gram-negative lactose fermenting bacteria; experiment: Gram-negative lactose fermenting bacteria on MacConkey agar, raw milk under CO2 pressure (Example 1); type: cell-based; settings: 6.1° C., 4 days
Description: Raw milk from the T&R Center was monitored for changes in aerobic bacteria, gram-negative bacteria and total Lactobacillus spp. as follows: CO2 pressures of 0 (control), 68, 172, 344, 516 and 689 kPa, at 6.1° C. for 4-days. SPC, gram-negative bacteria and total Lactobacillus spp. were enumerated before (day 0) and after (day 4) treatment. Gram negative bacteria were enumerated on MacConkey Agar (Difco Manual, Becton Dickinson & Co., Sparks, Md.), a selective and differential media which can be used to discriminate between lactose fermenting and non-lactose fermenting gram-negative bacteria. Use of this media allows a one-step method of obtaining estimates of both coliform and non-coliform gram negative bacteria. Coliform bacteria may include species of Escherichia, Klebsiella and Enterobacter, potential pathogens and/or spoilage organisms. Non-coliform gram negative bacteria may include spoilage organisms such as pseudomonads or potential pathogens such as Salmonella spp. or Shigella spp. […]
For all microbiological assays, milk sample aliquots of 1 ml were used in dilution series. […] Representative and distinctive suspect colonies were gram stained, and confirmed gram positive bacilli colonies were counted as an estimate of total Lactobacillus spp.

Lactobacillus plantarum = settings: CO2 pressures of 13 MPa, 30° C., 30 minutes (Hong and Pyun, 1999); cited from earlier work
[2] = tested on: milk microbiota (SPC, aerobic microorganisms); settings: cited from earlier work; for extension in storage life: 30 ppm CO2 (King and Mabbitt, 1982)
[3] = tested on: SPC (total microbial growth) in whole raw milk; experiment: SPC of bulk raw milk in CO2 pressurized tank container (Example 2); type: cell-based; settings: bottom of the tank, entire 17 day study
Description: The apparatus pressurizing and holding raw milk samples consisted of a 5300 U.S. gallon (20,000 liter) food grade, insulated, pressure vessel shipping container of the model HO4 type utilized by Agmark Foods, Inc. Compressed and filtered CO2 from high pressure tank was used, including a Praxair inline 3A sparger. The Agmark shipping container was sanitized on Aug. 4, 2004. The following day, the tank was pre-chilled with a spray of CO2 and filled with 3,291 U.S. gallons of fresh raw milk obtained from the Cornell University Teaching and Research Center Bovine Heard (T&R Center; Dryden, N.Y.) on Aug. 5, 2004. The raw milk from the T&R Center was received less than 12 hours after milking and was introduced from a holding tank into the pressure vessel at a temperature of approximately 1 to 2° C. Prior to filling the pressure vessel, the vessel was sealed and pressurized with carbon dioxide to a pressure of 25 psi (172.5 kPa). Milk was pumped into the tank through the discharge valve at the rear of the tank and CO2 was injected into the flow of the milk with an inline Praxair 3A sparger at a rate sufficient to infuse approximately 2000 parts per million at a gas flow rate of approximately 16 cubic feet per minute. The raw milk was pumped into the vessel at a flow rate of 70 to 80 gallons per minute with flowing CO2 under a 40 psi line pressure and 25 psi tank pressure. […]

[4] = pH of raw milk after CO2 pressure treatment (Example 1); type: physicochemical; settings: for pH after treatment (6.6 before treatment): 6.1° C., 4 days; for pH of milk samples: 10° C.
Description: The pH of the treated and control milk samples (as measured at atmospheric pressure) was 6.6 to 5.9 at CO2 pressures≦516 kPa and 5.7 when treated at pressures≧516 kPa and 20° C. The pH of the treated and control milk samples, when treated at 10° C., was 5.5 at CO2 pressures≦516 kPa and 5.8 when treated at pressures≧516 kPa.

thermoduric bacteria = experiment: Thermoduric bacteria (laboratory pasteurization count) in raw milk under CO2 pressure (Example 1); type: cell-based; settings: 4° C.
Description: Milk samples were mixed and 5 ml of milk added into the treatment and control vessels. The treatment vessel was connected to the apparatus and the control vessel closed off. Both vessels were placed in the water bath. When the desired temperatures were attained in both treatment and control vessels, CO2 was introduced through the bottom of the treatment vessel until the set pressure was reached. The CO2 pressure was maintained throughout the test period. When the desired time was reached, the CO2 inlet was turned off, the pressure release valve on the outlet line opened, and the pressure released in under one minute. After depressurization, the treatment and control vessels were removed from the water bath and their external surfaces were wiped dry, sanitized with 95% ethanol, detached from the apparatus and transferred into sterile containers for dilution and plating.
The progression of these counts (total, Coliform/E. coli and thermoduric bacteria) in the treatment and control samples was tracked by conducting checks on the total aerobic counts (SPC) on treatment days 4 and 6. Based on the levels of total counts on days 4 and 6, analyses of total coli forms/E. coli and thermoduric bacteria after day 6 were conducted either in 1-day or 2-day intervals. The control sample final count was measured on days 4 and 6.
Initial total, coliform, and thermoduric counts were each determined for control and treated samples. Thermoduric organisms were enumerated by the laboratory pasteurization count (LPC) method described in the Standard Methods for the Examination of Dairy Products (Houghtby et al., 1992). The 3M Petri film count plate (3M Microbiology Products, St. Paul, Minn.) was used to enumerate total coli forms and Escherichia coli in the raw, treated and control milk samples.

O=C=O [CO2, carbon dioxide]
effect on the growth of Lactobacillus spp. (Lactobacillus spp.): no effect | levels of gram-negative fermenters compared to untreated controls ([1]; 68 to 689 kPa): reduced at all pressures | decrease of gram-negative lactose fermenting bacteria compared to initial counts ([1]; 689 kPa): 0.80 log10 cfu/ml | reductions in populations of Lactobacillus plantarum (Lactobacillus plantarum): more than 6 logs | SPC lower compared to control milk ([2]; 20-30 pmm dissolved CO2, 4 days at 7° C. (Mabbitt, 1982)): 3 log10 cfu/ml | decrease in bulk raw milk microbiota ([2]; 3997 kPa (or 5800 psi) CO2, ≧40° C., 30 min (Calvo and Bacones, 2001)): 2 log10 cfu/ml | reduction in aerobic microorganisms in whole milk ([2]; 6044 kPa CO2, 45° C., 24 h (Erkman, 2000)): 6 log10 cfu/ml | reduction ([2]; 14598 kPa CO2, 25° C., 5-h (Erkman, 1997)): 8 log10 cfu/ml | reduction of bacterial growth in raw milk ([2]; addition of CO2, storage at 6.7° C. for 48 h (Shipe et al., 1978)): 50% | extension in storage life ([2]; good quality milk (10^3 cfu/ml)): 3 days | extension in storage life ([2]; poor quality milk (10^5 cfu/ml)): 1.2 days | bacterial levels versus quality limit of 5 log cfu/ml SPC [3]: did not reach the limit | pH after treatment (6.6 before treatment) ([4]; 68 kPa): 5.9 | pH after treatment (6.6 before treatment) ([4]; 344 kPa): 5.8 | pH after treatment (6.6 before treatment) ([4]; 516 kPa): 5.5 | pH of treated milk (initial value 6.6) ([4]; 689 kPa, 4° C., end of days 4, 6, 8 and 9): 5.5 | pH of milk samples ([4]; CO2 pressures ≦516 kPa): 5.5 | pH of milk samples ([4]; pressures ≧516 kPa): 5.8 | pH of milk samples (measured at atmospheric pressure) ([4]; pressures ≧516 kPa, 20° C.): 5.7 | Thermoduric Bacteria counts, Treated, 4 Days (thermoduric bacteria; 689 kPa CO2 pressure, 4 days, raw milk): 1.0 * 10^0 cfu/ml | Thermoduric Bacteria counts, Treated, 6 Days (thermoduric bacteria; 689 kPa CO2 pressure, 6 days, raw milk): 9.0 * 10^0m cfu/ml | Thermoduric Bacteria counts, Treated, 8 Days (thermoduric bacteria; 689 kPa CO2 pressure, 8 days, raw milk): 2.1 * 10^1n cfu/ml | Thermoduric Bacteria counts, Treated, 9 Days (thermoduric bacteria; 689 kPa CO2 pressure, 9 days, raw milk): 3.7 * 10^1o cfu/ml | total thermoduric bacteria counts in treated milk (thermoduric bacteria; 689 kPa, up to 9 days): Neither E. coli nor total thermoduric bacteria counts increased
